Results published in patent EP2116236A1, “Bisbenzamidine derivatives for use as antioxidant” (Université de Mons-Hainaut, priority 2008, dated 2009).

Assays:
[1] = superoxide dismutase activity: inhibition of pyrogallol auto-oxidation; format: biochemical; conditions: for Percent inhibition of the rate of pyrogallol auto-oxidation: compound 0.5 mM, pyrogallol 0.750 mM, TRIS saline buffer pH 7.4, first two minutes, average of three measures
Description: The pyrogallol auto-oxidation was measured at 420 nm according to the procedure Marklund & Marklund as reported in Vamecq et al. (2003). The incubation medium comprised TRIS saline buffer at pH 7.4 (5 mM TRIS, 50 mM NaCl) with either the vehicle (DMSO) or one of the compounds (final concentration 0.5 mM ) dissolved in DMSO. The reaction was triggered by the addition of pyrogallol (0.750 mM).
The results are given as percent inhibition of the rate of pyrogallol auto-oxidation measured during the first two minutes.

[2] = glutathione peroxidase activity: stimulation of peroxide-induced oxidation of reduced glutathione; format: biochemical; conditions: for Effects of the compounds on the oxidation rate (%): average glutathione oxidation rate, vehicle control = 100 %, 2 mM reduced glutathione, 10 µl 50 mM compound in 1 mL, pH 7.4; for Glutathione peroxidase activity: 2 mM reduced Glutathione
Description: The activity of glutathione peroxidase compounds refers to the stimulation by the compounds of the peroxide-induced oxidation of reduced glutathione (H2O2, t-butyl-hydroperoxide or cumene hydroperoxide). […] The formation of oxidized glutathione results in the oxidation of NADPH in the presence of glutathione reductase. The NADPH oxidation is then measured and reflects the formation of oxidized glutathione. In view of the absorbance of the compounds, NADPH oxidation was measured by the fluorescent emission at 466 nm when excited at 366 nm, which a corrected quenching.
The glutathione oxidation was measured in the presence of NADPH and glutathione reductase in 1 ml cell by fluorimetry (λexcitation = 366 nm and λemission= 466 nm). The cell contained 1 mL of 10 mM phosphate buffer pH 7.4, 0.25 mM NADPH, 10 µl DMSO (or 10 µl 50 mM compound dissolved in DMSO), 2 mM reduced glutathione and two units of glutathione reductase (Saccharomyces cerevisiae). The reaction was triggered by the addition of peroxide (5 mM t-butyl-hydroperoxide). A stimulation of the rate of peroxide-induced oxidation of glutathione was considered as glutathione peroxidase activity.

audiogenic seizure = audiogenic seizure test in magnesium deficient animals; format: in vivo
Description: (§1) The tests were performed in rodents as described in J. Vamecq et al. Eur. J. Neurosc. 2003, 18, 1110. The results are shown in Table 1, wherein ScPtz refers to subcutaneous pentylenetetrazol, MES refers to Maximal Electroshock Seizures, MCS refers to Maximal Clonic Seizures, and ND means "not determined". The results are given as ED50 in mg/kg.

[3] = system: electrical seizure MCS (6 Hz); test: Maximal Clonic Seizures (MCS) 6 Hz electroshock test; format: in vivo
Description: as §1

chemical seizure (scPtz) = test: subcutaneous pentylenetetrazol (scPtz) induced chemical seizure test; format: in vivo; conditions: Mus musculus, ip
Description: as §1

[4] = system: electrical seizure MES (50 Hz); test: Maximal Electroshock Seizures (MES) test; format: in vivo; conditions: Mus musculus, ip
Description: as §1

SMILES | Percent inhibition of the rate of pyrogallol auto-oxidation [1] [%] | scavenging activity toward the superoxide anion ([1]; result in words) | Effects of the compounds on the oxidation rate (%) ([2]; 5 mM t-butyl-hydroperoxide) | audiogenic seizure (mouse ip) ED50 (audiogenic seizure) | ED50 (audiogenic seizure; mouse ip) [mg/kg] | electrical seizure MCS (6 Hz) (mouse ip) ED50 [3] | ED50 ([3]; Mus musculus, ip) [mg/kg] | ED50 (chemical seizure (scPtz)) [mg/kg] | Glutathione peroxidase activity ([2]; 2.5 mM cumene hydroperoxide) [%] | Glutathione peroxidase activity ([2]; 2.5 mM hydrogen peroxide) [%] | Glutathione peroxidase activity ([2]; 5 mM hydrogen peroxide) [%] | Glutathione peroxidase activity ([2]; 5 mM t-butyl-hydroperoxide) [%] | ED50 [4] [mg/kg]
N=C(N)c1ccc(N)cc1 [4-aminobenzaminidine, 4-aminobenzamidine, reference compound] | < 5 | does not have any scavenging activity |  |  |  |  |  |  |  |  |  |  | 
N=C(N)c1ccc(NCCNc2ccc(C(=N)N)cc2)cc1 [Compound 2, 4,4'-(1,2-ethanediyldiimino)bisbenzenecarboximidamide] | 36.3 |  | < 100 | active | 6.9 | ED50 = 48.95 mg/kg | 60 to 100 | > 300 |  |  |  |  | 
CN(CCN(C)c1ccc(C(=N)N)cc1)c1ccc(C(=N)N)cc1 [Compound 3, 4,4'-[1,2-ethanediyl (N,N'-dimethyl bisnitrilo)]bis(benzenecarboximidamide)] | 51.0 |  | 197 | little activity at non toxic doses |  |  |  | > 300 | 128 | 117 | 108 | 197 | 
CN(CCNc1ccc(C(=N)N)cc1)c1ccc(C(=N)N)cc1 [Compound 4, 4,4'-(N-methyl 1,2-ethanediyldiimino)bis(benzenecarboximidamide)] | 17.5 |  | 107 | little activity at non toxic doses |  |  |  | > 100 |  |  |  |  | > 100
CCN(CCNc1ccc(C(=N)N)cc1)c1ccc(C(=N)N)cc1 [Compound 5, 4,4'-(N-ethyl-1,2-ethanediyldiimino)bis(benzenecarboximidamide)] | 28.8 |  | 105 | little activity at non toxic doses |  |  |  | > 30 |  |  |  |  | 
